Test results: ChEMBL document CHEMBL3301361, “Experimental in vitro DMPK and physicochemical data on a set of publicly disclosed compounds”
In brackets after ≈: the same amount, converted by molar mass.

What was measured:
[1] = in vitro; settings: hepatocytes
[2] = physchem; settings: octan-1-ol/water
[3] = physchem; settings: pH 7.4 buffer
[4] = in vitro; settings: human
[5] = in vitro; settings: human, plasma

Compound	hepatocyte CLint [1]	logD ([2]; pH 7.4, LogD7.4)	solubility thermodynamic [3]	microsomal CLint ([4]; microsomes)	fraction unbound at 5 h ([5]; PPB)	microsomal CLint ([4]; liver microsomes)	fraction unbound at 5 h [5]	logD ([2]; pH 7.4)
O=C(Nc1ccncc1)c1cccc2ccccc12	25.1 µL/min/1e6 cells					60.3 µL/min/mg	0.069	3.1
Oc1ncnc2c1c(-c1ccccc1)cn2-c1ccc(Br)cc1	52.5 µL/min/1e6 cells		1.6 µM (≈ 0.586 µg/mL)			60.3 µL/min/mg		
Cc1c(C(=O)Nc2ccccc2)sc2ncnc(O)c12	> 150 µL/min/1e6 cells	2.13	22.4 µM (≈ 6.39 µg/mL)			5 µL/min/mg		
COc1ccccc1C(=O)Nc1ccc(Cc2ccncc2)cc1	103 µL/min/1e6 cells			7 µL/min/mg	0.0024			
CCN(CC)CCn1c2ccccc2c2cnc(N)c(C#N)c21	77 µL/min/1e6 cells	2.7	58.9 µM (≈ 18.1 µg/mL)	71 µL/min/mg				
Cc1cc(CN2CCc3ccccc3C2C(=O)Nc2ccc(Cl)cc2Cl)ccc1OCC(=O)O (stereo not given)	20 µL/min/1e6 cells	2.63	166 µM (≈ 82.9 µg/mL)	15 µL/min/mg				
Nc1nc2ccc(-c3ccncc3)cc2s1	29.5 µL/min/1e6 cells				0.119	20.4 µL/min/mg		
C[C@H]1C[C@@H](NS(=O)(=O)c2cc(Br)ccc2Br)CN1C#N	39 µL/min/1e6 cells	2.13	31.6 µM (≈ 13.4 µg/mL)	16 µL/min/mg				
O=C1Nc2ccccc2B(O)N1c1ccccc1	7.94 µL/min/1e6 cells			5.13 µL/min/mg			0.179	1.4
Cc1ccc(S(=O)(=O)Nc2c(C(=O)N[C@@H](C)C(C)(C)C)c(C)nn2C2CCCCC2)cc1	8 µL/min/1e6 cells	1.97	871 µM (≈ 401 µg/mL)	33 µL/min/mg				
O=c1[nH]c2c(O)ccc([C@@H](O)CNCCc3cccc(CNCCc4ccccc4Cl)c3)c2s1	42 µL/min/1e6 cells	1.63	118 µM (≈ 58.5 µg/mL)	19 µL/min/mg				
COc1ccc(N(C(=O)Oc2c(C)cccc2C)c2ccnc(Nc3ccc(N4CCN(C)CC4)cc3)n2)c(OC)c1	35.5 µL/min/1e6 cells			27.5 µL/min/mg			0.0017	
CCc1nc2ccc(C(=O)NCc3ccc4c(c3)OCO4)cn2c1N(C)Cc1cccs1	> 150 µL/min/1e6 cells				0.0035	> 150 µL/min/mg		
CCNC(=O)C[C@H]1N=C(c2ccc(Cl)cc2)c2cc(OC)ccc2-n2c(C)nnc21	6.31 µL/min/1e6 cells			11.5 µL/min/mg			0.069	
CCc1[nH]c2nc(Sc3cnc4ccc[n+]([O-])c4c3)nc(N3C[C@@H]4[C@@H](N)[C@@H]4C3)c2c1Cl	58.9 µL/min/1e6 cells	2.3		33.9 µL/min/mg	0.0661			
CN1CCN(CCOc2n[nH]c3ncnc(Nc4ccc(OCc5ccccn5)c(Cl)c4)c23)CC1	13.5 µL/min/1e6 cells	2.45	26.3 µM (≈ 13 µg/mL)			30.2 µL/min/mg		
C[C@@H](C(N)=O)c1ccc(OS(=O)(=O)C(F)(F)F)cc1	3 µL/min/1e6 cells				0.134	< 3 µL/min/mg		
CC1(C)S[C@@H]2[C@H](NC(=O)C(C(=O)O)c3ccccc3)C(=O)N2[C@H]1C(=O)O (stereo not given in full) [CARBENICILLIN]	3.39 µL/min/1e6 cells				0.546	6.92 µL/min/mg		
COc1cc(C(=O)OCCCCNC(=N)N)cc(OC)c1O [LEONURINE]	138 µL/min/1e6 cells				0.619	< 3 µL/min/mg		
C[C@]1(O)C[C@@H](c2nc(-c3ccc4ccc(-c5ccccc5)nc4c3)c3c(N)nccn32)C1 [LINSITINIB]	17 µL/min/1e6 cells		1.3 µM (≈ 0.548 µg/mL)			17.4 µL/min/mg		

Continued, values first:

hepatocyte CLint [1]	logD ([2]; pH 7.4, LogD7.4)	solubility thermodynamic [3]	microsomal CLint ([4]; microsomes)	fraction unbound at 5 h ([5]; PPB)	microsomal CLint ([4]; liver microsomes)	fraction unbound at 5 h [5]	logD ([2]; pH 7.4)	Compound
35.5 µL/min/1e6 cells	3.88	5.8 µM (≈ 2.2 µg/mL)	43.6 µL/min/mg					CS(=O)(=O)c1ccc([C@H](CC2CCCC2)C(=O)Nc2nccs2)cc1
50.1 µL/min/1e6 cells			117 µL/min/mg	0.0005				CN(C)c1nc(NC[C@H]2CC[C@H](CNS(=O)(=O)c3ccc(Br)cc3OC(F)(F)F)CC2)nc2ccccc12
> 150 µL/min/1e6 cells					> 150 µL/min/mg	0.0052		Cc1[nH]c2ccc(-c3nnc(SCC(=O)N4CCCc5ccccc54)o3)cc2c1C
74 µL/min/1e6 cells				0.398	31 µL/min/mg			CSCCC(NC(=O)c1cnccn1)c1nc2ccccc2[nH]1 (stereo not given)
21 µL/min/1e6 cells	4.31	10.5 µM (≈ 4.46 µg/mL)			17 µL/min/mg			CCOc1ccc2oc(C(=O)NC(CCSC)c3nc4cnccc4[nH]3)c(C)c2c1 (stereo not given)
24 µL/min/1e6 cells	4.5	2.1 µM (≈ 0.788 µg/mL)	11.2 µL/min/mg					CN(C)CCNc1cc(-c2ccccc2)nc2cc(-c3ccc(F)cc3)nn12
148 µL/min/1e6 cells					> 150 µL/min/mg	0.028		COCCNc1nc(NCc2ccccc2F)c2sccc2n1
> 150 µL/min/1e6 cells	2.9	8.9 µM (≈ 3.35 µg/mL)			> 150 µL/min/mg			Cc1ccc(CNC(=O)C2CCCN2S(=O)(=O)c2ccc(F)cc2)cc1 (stereo not given)
138 µL/min/1e6 cells				0.0022	> 150 µL/min/mg			COc1ccc(-c2nc3c(NCCCN(C)C(=O)C4CCC4)c(Br)cnc3[nH]2)cc1
9 µL/min/1e6 cells			< 3 µL/min/mg	0.02				O=C(O)Cc1ccc(N2CCC(CN3CCC(Oc4ccc(Cl)c(Cl)c4)CC3)CC2)cc1
26.9 µL/min/1e6 cells	2.2			0.285	112 µL/min/mg			CC(C)N(CCCNC(=O)Nc1ccc(C(C)(C)C)cc1)C[C@H]1O[C@@H](n2cnc3c(N)ncnc32)[C@H](O)[C@@H]1O
39.8 µL/min/1e6 cells	2.04			0.02	87.1 µL/min/mg			C=CC(=O)Nc1cccc(CN2C(=O)N(c3c(Cl)c(OC)cc(OC)c3Cl)Cc3cnc(NCCCCN(CC)CC)nc32)c1
> 150 µL/min/1e6 cells			> 150 µL/min/mg	0.0017				O=C(CSc1nc2c(c(=O)n1-c1ccccc1)SCC2)Nc1ccc(-c2ccccc2)cn1
129 µL/min/1e6 cells				0.0023	> 150 µL/min/mg			O=C(CSc1nc2c(c(=O)n1-c1ccccc1)SCC2)Nc1ncc(-c2ccccc2)s1
12.3 µL/min/1e6 cells	1.9		17.8 µL/min/mg	0.139				CNc1nc(C)c(-c2nc(Nc3cccc(N4CCNCC4)c3)ncc2C#N)s1
> 150 µL/min/1e6 cells				0.0019	95.5 µL/min/mg			CNc1nc(C)c(-c2nc(Nc3cccc(N4CCCCC4)c3)ncc2C#N)s1
65 µL/min/1e6 cells	2.14	646 µM (≈ 254 µg/mL)			< 3 µL/min/mg			CC[C@@H](Nc1c(Nc2cccc(C(=O)N(C)C)c2O)c(=O)c1=O)c1ccccc1
4 µL/min/1e6 cells				0.0028	6 µL/min/mg			CCOc1nc2ccc(OCCC3CCN(c4ccc(C)nn4)CC3)cc2o1
12 µL/min/1e6 cells	1.94			0.016	85.1 µL/min/mg			CN[C@@H](C)C(=O)N[C@H](C(=O)N1CC[C@H]2CC[C@H](NC(=O)c3cccc4ccccc34)[C@H]21)C(C)(C)C
20.9 µL/min/1e6 cells	3.86	5.5 µM (≈ 2.08 µg/mL)	29.5 µL/min/mg					CS(=O)(=O)c1ccc([C@@H](CC2CCCC2)C(=O)Nc2nccs2)cc1 [Ro-281675]
